From patent US20170190671A1, “BIS(ARYL)CATECHOL DERIVATIVES AS HERBICIDES” (E I DU PONT DE NEMOURS AND COMPANY, priority 2014, published 2017)

Columns and labels:
Format in all cases: in vivo
[1] = system: galium (catchweed bedstraw, Galium aparine); assay: Test C preemergence; details: Galium, pre-emergence, 336 h, scale 0 to 100, read-out: Plant response rating, Galium
Text: (§1) Seeds of plant species selected from blackgrass (Alopecurus myosuroides), Italian ryegrass (Lolium multiflorum), winter wheat (Triticum aestivum), galium (catchweed bedstraw, Galium aparine), corn (Zea mays), large (Lg) crabgrass (Digitaria sanguinalis), giant foxtail (Setaria faberii), johnsongrass (Sorghum halepense), lambsquarters (Chenopodium album), morningglory (Ipomoea coccinea), yellow nutsedge (Cyperus esculentus), pigweed (Amaranthus retroflexus), ragweed (common ragweed, Ambrosia elatior), soybean (Glycine max), barnyardgrass (Echinochloa crus-galli), oilseed rape (Brassica napus), waterhemp (common waterhemp, Amaranthus rudis), and velvetleaf (Abutilon theophrasti) were planted into a blend of loam soil and sand and treated preemergence with test chemicals formulated in a non-phytotoxic solvent mixture which included a surfactant.
(§2) At the same time, plants selected from these crop and weed species and also chickweed (common chickweed, Stellaria media), kochia (Kochia scoparia), and wild oat (Avena fatua), were planted in pots containing Redi-Earth® planting medium (Scotts Company, 14111 Scottslawn Road, Marysville, Ohio 43041) comprising spaghnum peat moss, vermiculite, wetting agent and starter nutrients and treated with postemergence applications of test chemicals formulated in the same manner. Plants ranged in height from 2 to 18 cm (1- to 4-leaf stage) for postemergence treatments. Treated plants and controls were maintained in a greenhouse for 13 to 15 days, after which time all species were compared to controls and visually evaluated. Plant response ratings, summarized in Table C, are based on a scale of 0 to 100 where 0 is no effect and 100 is complete control. A dash (-) response means no test result.

[2] = system: yellow nutsedge (Cyperus esculentus); assay: Test C preemergence; details: Cyperus, pre-emergence, 336 h, scale 0 to 100, read-out: Plant response rating, Nutsedge, Yellow
Text: as §1, §2

[3] = system: lambsquarters (Chenopodium album); assay: Test C preemergence; details: Chenopodium album, pre-emergence, 336 h, scale 0 to 100, read-out: Plant response rating, Lambsquarters
Text: as §1, §2

rice (Oryza sativa) = assay: Test B flooded paddy; details: Oryza sativa, 336 h; 250 g ai/ha, Flood, 13 to 15 days, scale 0 (no effect) to 100 (complete control); read-out: Plant response rating, Rice
Method in brief: (§3)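 Ratings were visual and made relative to untreated controls after 13 to 15 greenhouse days.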

[4] = system: ducksalad (Heteranthera limosa); assay: Test B flooded paddy; details: Heteranthera limosa, 336 h; 250 g ai/ha, Flood, 13 to 15 days, scale 0 (no effect) to 100 (complete control); read-out: Plant response rating, Ducksalad
Method in brief: as §3

[5] = system: barnyardgrass (Echinochloa crus-galli); assay: Test B flooded paddy; details: Echinochloa crus-galli, 336 h; 250 g ai/ha, Flood, 13 to 15 days, scale 0 (no effect) to 100 (complete control); read-out: Plant response rating, Barnyardgrass
Method in brief: as §3

[6] = system: sedge, umbrella (small-flower umbrella sedge, Cyperus difformis); assay: Test B flooded paddy; details: Cyperus difformis, 336 h; 250 g ai/ha, Flood, 13 to 15 days, scale 0 (no effect) to 100 (complete control); read-out: Plant response rating, Sedge, Umbrella
Method in brief: as §3

corn (Zea mays) = assay: Test A postemergence; details: Zea mays, post-emergence, 240 h, 0 to 100 scale
Method in brief: (§4)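 Visual 0–100 rating (100 = complete control) taken about 10 d post-treatment relative to untreated checks. Preemergence: directed soil spray on sown loam/sand pots. Postemergence: seedlings 2–10 cm, 1–2 leaf. Non-phytotoxic solvent formulation with surfactant.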

[7] = system: pigweed (Amaranthus retroflexus); assay: Test A postemergence; details: Amaranthus retroflexus, post-emergence, 240 h, 0 to 100 scale, read-out: Plant response rating, Pigweed
Method in brief: as §4

[8] = system: barnyardgrass (Echinochloa crus-galli); assay: Test A postemergence; details: Echinochloa crus-galli, post-emergence, 240 h, 0 to 100 scale, read-out: Plant response rating, Barnyardgrass
Method in brief: as §4

[9] = system: wheat (Triticum aestivum); assay: Test A postemergence; details: Triticum aestivum, post-emergence, 240 h, 0 to 100 scale, read-out: Plant response rating, Wheat
Method in brief: as §4

[10] = system: giant foxtail (Setaria faberii); assay: Test A postemergence; details: Setaria faberi, post-emergence, 240 h, 0 to 100 scale, read-out: Plant response rating, Foxtail, Giant
Method in brief: as §4

[11] = system: pigweed (Amaranthus retroflexus); assay: Test A preemergence; details: Amaranthus retroflexus, pre-emergence, 240 h
Method in brief: as §4

[12] = system: barnyardgrass (Echinochloa crus-galli); assay: Test A preemergence; details: Echinochloa crus-galli, pre-emergence, 240 h, 0 to 100 scale, read-out: Plant response rating, Barnyardgrass
Method in brief: as §4

[13] = system: giant foxtail (Setaria faberii); assay: Test A preemergence; details: Setaria faberi, pre-emergence, 240 h
Method in brief: as §4

Compound Clc1cnc(Oc2cccc(Br)c2Oc2ncc(Cl)cn2)nc1 [Compound 19, 2,2′-[[3-bromo-1,2-phenylene]bis(oxy)]bis[5-chloropyrimidine]] has a pest or weed control at 31 g/ha ([1]; 31 g ai/ha, preemergence) of 100%, a pest or weed control at 62 g/ha ([1]; 62 g ai/ha, preemergence) of 100% and a pest or weed control at 125 g/ha ([1]; 125 g ai/ha, preemergence) of 100%. The pest or weed control at 16 g/ha ([1]; Preemergence, 16 g ai/ha) was 85%, the pest or weed control at 31 g/ha ([2]; 31 g ai/ha, preemergence) was 5% and the pest or weed control at 62 g/ha ([2]; 62 g ai/ha, preemergence) was 20%. The pest or weed control at 125 g/ha ([2]; 125 g ai/ha, preemergence) was 55%, the pest or weed control at 16 g/ha ([2]; Preemergence, 16 g ai/ha) was 0% and the pest or weed control at 31 g/ha ([3]; 31 g ai/ha, preemergence) was 100%. For the same compound, the pest or weed control at 62 g/ha ([3]; 62 g ai/ha, preemergence) was 100%, the pest or weed control at 125 g/ha ([3]; 125 g ai/ha, preemergence) was 100% and the pest or weed control at 16 g/ha ([3]; Preemergence, 16 g ai/ha) was 98%. The plant injury at 250 g/ha (rice (Oryza sativa)) was 25%, the pest or weed control at 250 g/ha [4] was 95% and the pest or weed control at 250 g/ha [5] was 15%. The pest or weed control at 250 g/ha [6] was 85%, the Corn plant response rating (crop injury, 0 = no effect, 100 = complete kill) at 125 g/ha (corn (Zea mays); 125 g ai/ha) was 50% and the Corn plant response rating (crop injury, 0 = no effect, 100 = complete kill) at 500 g/ha (corn (Zea mays); 500 g ai/ha) was 60%. It also gave a pest or weed control at 125 g/ha ([7]; 125 g ai/ha) of 100%, a pest or weed control at 500 g/ha ([7]; 500 g ai/ha) of 100% and a pest or weed control at 125 g/ha ([8]; 125 g ai/ha) of 70%. For the same compound, the pest or weed control at 500 g/ha ([8]; 500 g ai/ha) was 100%, the plant injury at 125 g/ha ([9]; 125 g ai/ha) was 50% and the plant injury at 500 g/ha ([9]; 500 g ai/ha) was 60%. For the same compound, the pest or weed control at 125 g/ha ([10]; 125 g ai/ha) was 80%, the pest or weed control at 500 g/ha ([10]; 500 g ai/ha) was 90% and the pest or weed control at 125 g/ha ([11]; 125 g ai/ha, 0 to 100 scale (0 no effect, 100 complete control), read-out: Pigweed plant response rating) was 100%. The pest or weed control at 500 g/ha ([11]; 500 g ai/ha, 0 to 100 scale, read-out: Plant response rating, Pigweed) was 100%, the pest or weed control at 125 g/ha ([12]; 125 g ai/ha) was 80% and the pest or weed control at 500 g/ha ([12]; 500 g ai/ha) was 90%. It also gave a pest or weed control at 125 g/ha ([13]; 125 g ai/ha, 0 to 100 scale (0 no effect, 100 complete control), read-out: Foxtail, Giant plant response rating) of 100% and a pest or weed control at 500 g/ha ([13]; 500 g ai/ha, 0 to 100 scale, read-out: Plant response rating, Foxtail, Giant) of 100%.
